{
  "source": "patent US10568854B2",
  "about": "“Compositions and methods for treating kabuki syndrome and related disorders” (THE JOHNS HOPKINS UNIVERSITY, priority 2014, dated 2020)",
  "key": {"[1]": {"test_system": "Klf10 expression", "experiment": "Real-time PCR of Kmt2d target gene Klf10 in spleen cells", "type": "in vivo, mouse", "conditions": "Kmt2d^+/βGeo mice", "method": "Real time PCR: Real-time PCR was performed using Kmt2d-specific probes for exons 20 and 52 (Mm_02600438 and Mm_01717664, respectively) from TaqMan® Gene Expression Assays (Life Technologies, Carlsbad, Calif.). For a comparison of transfection efficiencies for indicator constructs in transient transfection studies, real-time PCR was performed using SYBR Green Real-Time PCR Master Mix (Life Technologies, Carlsbad, Calif.) and primers IND-F-([…]; SEQ ID NO: 5) and IND-R-([…]; SEQ ID NO: 6) that are specific for the H3K4 methylation indicator. For expression analysis for KMT2D target gene KLF10, real-time PCR was performed using Klf10-specific expression assay (Mm00449812_m1) from TaqMan® Gene Expression Assays (Life Technologies, Carlsbad, Calif.)."}, "[2]": {"test_system": "DCX positive cells in the GCL", "experiment": "DCX (doublecortin) expression in the GCL, neurogenesis (AR-42 treated mice)", "type": "in vivo, mouse", "from_the_text": "Animals: Kmt2d^+/βGeo mice, also named Mll2Gt^(RRt024)Byg, were acquired from Bay Genomics (University of California). All experimental mice were on a mixed C57BL/6J and 129/SvEv background. Expected Mendelian ratios were observed when heterozygous animals were bred to wild-type. In heterozygous crosses, however, there was uniform embryonic lethality of homozygotes by ED12, the earliest developmental stage assayed. For treatment with AR-42 mice were orally gavaged daily with drug (Selleck Chemicals, Houston, Tex.) solubilized in vehicle (0.5% methylcellulose, 0.1% Tween-80, water) or with vehicle alone. Drug delivery information was kindly provided by Drs. Chen and Kulp from Ohio State University (Huang et al. (2011) Mol. Pharmacol. 79:197-20619). Drug was administered for 14 days and mice were sacrificed on day 15. Morris water maze testing was initiated at day 7 and a dose of 10 mg/kg/day was used for these studies. For quantification of DCX positive cells, doses of 0, 5, 10 and 25 mg/kg/day were used. Genotyping was performed using primers B-GeoF-([…]; SEQ ID NO: 1) and B-GeoR-([…]; SEQ ID NO: 2) that are specific for the targeted allele and TcrdF-([…]; SEQ ID NO: 3) and TcrdR-([…]; SEQ ID NO: 4) that control for sufficient DNA concentration. Real-time PCR using the same primers allows discrimination between the heterozygous and homozygous state for the targeted allele. Maxillary protrusion was evaluated by ten investigators blinded to genotype and they were asked to rate maxillary protrusion on radiographs as either large (2) or small (1). […] All experiments were performed using mouse protocols approved by the Animal Care and Use Committee of Johns Hopkins University School of Medicine. The mouse protocols used for this study are in accordance with the guidelines used by the NIH for mouse care and handling.\nImmunofluorescence: Every 6th brain section was selected and then blocked with 5% Bovine Serum Albumin (BSA) at room temperature followed by incubation with primary antibodies overnight at 4° C. Secondary antibodies were then applied for 1 hour at room temperature, after which sections were mounted onto microscope slides with Vectamount with DAPI (Vector Laboratories, Burlingame, Calif.). Primary antibodies included Doublecortin (DCX) (SC-8066, Santa Cruz Biotechnology, Dallas, Tex., 1:200 goat), trimethylated H3K4 (9727L, Cell Signaling Technology, Beverly, Mass., 1:500 rabbit), and Kmt2d H-300 (SC-292359, Santa Cruz Biotechnology, Dallas, Tex., 1:500 rabbit). Non-specific binding was not observed when sections were sequentially exposed to serum (or IgG when appropriate) from the same species as the primary antibody for each experiment (i.e. rabbit for KMT2D and H3K4me3 and goat for doublecortin), followed by the secondary antibody used for KMT2D and H3K4me3 (anti-rabbit) or doublecortin (anti-goat, FIG. 27).\nGCL and doublecortin area: The area of both the GCL and DCX+ cells was measured using the NS elements 2.0 software (Nikon, Tokyo, JPN). Normalized DCX area was calculated by measuring the DCX+ area of the GCL and setting the baseline (Kmt2d^+/+) fraction to 1. A Student t-test with significance value set at P<0.05 was used for comparison of DCX+ area referenced to GCL area between genotypes and treatment arms."}, "[3]": {"test_system": "H3K4me3 in the GCL", "experiment": "Immunofluorescence of H3K4me3 in dentate gyrus GCL (AR-42 treated mice)", "type": "in vivo, mouse", "from_the_text": "Animals: Kmt2d^+/βGeo mice, also named Mll2Gt^(RRt024)Byg, were acquired from Bay Genomics (University of California). All experimental mice were on a mixed C57BL/6J and 129/SvEv background. Expected Mendelian ratios were observed when heterozygous animals were bred to wild-type. In heterozygous crosses, however, there was uniform embryonic lethality of homozygotes by ED12, the earliest developmental stage assayed. For treatment with AR-42 mice were orally gavaged daily with drug (Selleck Chemicals, Houston, Tex.) solubilized in vehicle (0.5% methylcellulose, 0.1% Tween-80, water) or with vehicle alone. Drug delivery information was kindly provided by Drs. […] For quantification of DCX positive cells, doses of 0, 5, 10 and 25 mg/kg/day were used. […] Maxillary protrusion was evaluated by ten investigators blinded to genotype and they were asked to rate maxillary protrusion on radiographs as either large (2) or small (1). […]\nConfocal microscopy: Z-stack images of slides were taken at either 10× using Zeiss Axiovert 200 with 510-Meta confocal module (Carl Zeiss, Jena, GER) or 25× using Zeiss AxioExaminer with 710NLO-Meta multiphoton (Carl Zeiss, Jena, GER). From 10× pictures, the GCL was highlighted and fluorescent intensities for both DAPI and H3K4me3 were measured at the midpoint of the entire z-stack (Zen software, Carl Zeiss, Jena, GER) with the value for Kmt2d^+/+ animals set equal to one. […]"}, "[4]": {"test_system": "H3K4 trimethylation and histone acetylation", "conditions": "cited from earlier work"}},
  "note": "Entries after “also recorded” stand apart in the source; their conditions may differ.",
  "data": [
    {"smiles": "CC(C)[C@H](C(=O)Nc1ccc(C(=O)NO)cc1)c1ccccc1", "note": "[AR-42, (S)—N-hydroxy-4-(3-methyl-2-phenylbutanamido)benzamide]", "values": [
      {"measurement": "Klf10 expression in spleen cells", "setting": "[1]", "value": "normalization of expression of Klf10; also recorded: normalized"},
      {"measurement": "DCX expression in the GCL", "setting": "[2]; 10 mg/kg/day, older mice (5-6 months), Kmt2d^+/βGeo", "value": "improved"},
      {"measurement": "DCX expression in the GCL", "setting": "[2]; 25 mg/kg/day, Kmt2d^+/+ animals", "value": "reduced DCX expression"},
      {"measurement": "DCX expression in the GCL", "setting": "[2]; 25 mg/kg/day, Kmt2d^+/βGeo mice", "value": "did not improve DCX expression"},
      {"measurement": "DCX expression in the GCL", "setting": "[2]; 25 mg/kg/day, young (1-2 month-old) and old (5-6 month-old), both genotypes", "value": "decreased DCX expression"},
      {"measurement": "neurogenesis (normalized DCX expression)", "setting": "[2]; 1-2 month old Kmt2d^+/βGeo mice, doses 0, 5, 10 mg/kg/day", "value": "dose-dependent increase in neurogenesis"},
      {"measurement": "DCX expression in the GCL", "setting": "[2]; 5 and 10 mg/kg/day, Kmt2d^+/+ or Kmt2d^+/βGeo, both age groups", "value": "preservation or restoration of DCX expression"},
      {"measurement": "H3K4me3 in the GCL", "setting": "[3]; 25 mg/kg/day, oral gavage, two weeks", "value": "increased H3K4 trimethylation; also recorded: increased H3K4me3"},
      {"measurement": "H3K4me3 in the GCL", "setting": "[3]; 5 and 10 mg/kg/day, both genotypes", "value": "dose-dependent increase in H3K4me3"},
      {"measurement": "relative effect on H3K4me3", "setting": "[4]; AR-42 versus MS275, Huang et al. (2011)", "value": "strongest effect on H3K4me3"},
      {"measurement": "effect on H3K4 trimethylation and histone acetylation", "setting": "[4]; Huang et al. (2011)", "value": "increase H3K4 trimethylation and histone acetylation"}
    ]}
  ]
}
